In general, IC50 refers to the concentration needed to halve the response being measured. A higher IC50 goes with lower potency.

Results on 49 compounds are retold here after patent US9346761B2, “Arginine methyltransferase inhibitors and uses thereof” (Epizyme, Inc., priority 2013, dated 2016).

Counter-ions that a name gives are not always drawn.

Assay [1] addresses T1, Full-length human PRMT1 isoform 1 (Homo sapiens, UniProt Q99873).
T1 construct: GST-tagged PRMT1; made in house; host or cells: High Five insect cells (baculovirus, pFastBacI)
Description: PRMT1 biochemical assay (3H-SAM Flashplate, peptide substrate). In a few lines:
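Tritiated methyl transfer from 3H-SAM onto biotinylated peptide, captured on streptavidin Flashplates and counted. Baculovirus-expressed GST-PRMT1 and compound were preincubated 30 min at room temperature in Bicine buffer pH 7.6. Cold SAM at 300 uM final ended the reaction.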

In a further assay the target is T2, Full-length human PRMT8 (Homo sapiens, UniProt Q9NR22).
T2 construct: Full-length human PRMT8 (NM_019854.4) isoform 1 transcript clone; made in house
T2 sequence (Q9NR22 whole entry, canonical isoform): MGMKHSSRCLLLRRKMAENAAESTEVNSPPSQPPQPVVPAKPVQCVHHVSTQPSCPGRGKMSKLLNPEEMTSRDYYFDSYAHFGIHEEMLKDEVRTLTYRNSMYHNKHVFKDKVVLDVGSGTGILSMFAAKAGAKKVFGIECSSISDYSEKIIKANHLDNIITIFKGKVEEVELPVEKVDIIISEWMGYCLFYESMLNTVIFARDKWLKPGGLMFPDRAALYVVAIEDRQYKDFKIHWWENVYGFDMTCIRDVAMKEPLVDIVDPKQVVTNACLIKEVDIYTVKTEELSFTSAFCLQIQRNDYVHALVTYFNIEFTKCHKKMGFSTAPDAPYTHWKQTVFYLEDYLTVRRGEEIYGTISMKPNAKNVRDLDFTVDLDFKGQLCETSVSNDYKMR
Description: PRMT8 biochemical assay (3H-SAM Flashplate, peptide substrate). An excerpt:
General Materials. S-adenosylmethionine (SAM), S-adenosylhomocysteine (SAH), bicine, Tween20, dimethylsulfoxide (DMSO), bovine skin gelatin (BSG), isopropyl-β-D-thiogalactopyranoside (IPTG), and Tris(2-carboxyethyl)phosphine hydrochloride solution (TCEP) were purchased from Sigma-Aldrich at the highest level of purity possible. ^3H-SAM was purchase from American Radiolabeled Chemicals with a specific activity of 80 Ci/mmol. 384-well streptavidin Flashplates were purchased from PerkinElmer.
Substrates. Peptide representative of human histone H4 residues 31-45 was synthesized with an N-terminal linker-affinity tag motif and a C-terminal amide cap by 21st Century Biochemicals.
Protein Expression. E. coli (BL21(DE3) Gold, Stratagene) made competent by the CaCl2 method were transformed with the PRMT8 construct and ampicillin selection. Protein over-expression was accomplished by growing the PRMT8 expressing E. coli clone and inducing expression with 0.3 mM IPTG at 16° C. The culture was grown for 12 hours, harvested by centrifugation, and stored at −80° C. for purification.
Protein Purification. […] GST-tagged PRMT8 was eluted with 50 mM Tris, 2 mM glutathione, pH 7.8. Pooled fractions were cleaved by thrombin (10 U) and dialysed in buffer A. GST was removed by reloading the cleaved protein sample onto glutathione sepharose column and PRMT8 was collected in the flow-through fractions. PRMT8 was purified further by ceramic hydroxyapatite chromatography. The column was washed with 50 mM phosphate buffer, 100 mM NaCl, 5% glycerol, 5 mM β-mercaptoethanol, pH 7.8 and PRMT8 was eluted by 100 mM phosphate in the same buffer. Protein was concentrated and buffer was exchanged to 50 mM Tris, 300 mM NaCl, 10% glycerol, 5 mM β-mercaptoethanol, pH 7.8 by ultrafiltration.
General Procedure for PRMT8 Enzyme Assays on Peptide Substrates. The assays were all performed in a buffer consisting of 20 mM Bicine (pH=7.6), 1 mM TCEP, 0.005% BSG, and 0.002% Tween 20, prepared on the day of use. […] DMSO (1 ul) was added to Columns 11, 12, 23, 24, rows A-H for the maximum signal control and 1 ul of SAH, a known product and inhibitor of PRMT8, was added to columns 11, 12, 23, 24, rows I-P for the minimum signal control. A cocktail (40 ul) containing the PRMT8 enzyme was added by Multidrop Combi (Thermo-Fisher). The compounds were allowed to incubate with PRMT8 for 30 min at room temperature, then a cocktail (10 ul) containing ^3H-SAM and peptide was added to initiate the reaction (final volume=51 ul). […] The assays were stopped by the addition of non-radiolabeled SAM (10 ul) to a final concentration of 400 uM, which dilutes the ^3H-SAM to a level where its incorporation into the peptide substrate is no longer detectable. 50 ul of the reaction in the 384-well polypropylene plate was then transferred to a 384-well Flashplate and the biotinylated peptides were allowed to bind to the streptavidin surface for at least 1 hour before being washed once with 0.1% Tween20 in a Biotek ELx405 plate washer. The plates were then read in a PerkinElmer TopCount plate reader to measure the quantity of ^3H-labeled peptide bound to the Flashplate surface, measured as disintegrations per minute (dpm) or alternatively, referred to as counts per minute (cpm).
Where dpm=disintegrations per minute, cmpd=signal in assay well, and min and max are the respective minimum and maximum signal controls.
Where top and bottom are the normally allowed to float, but may be fixed at 100 or 0 respectively in a 3-parameter fit. The Hill Coefficient normally allowed to float but may also be fixed at 1 in a 3-parameter fit. Y is the % inhibition and X is the compound concentration.

T1 sequence (Q99873 with tags, fused parts or gaps): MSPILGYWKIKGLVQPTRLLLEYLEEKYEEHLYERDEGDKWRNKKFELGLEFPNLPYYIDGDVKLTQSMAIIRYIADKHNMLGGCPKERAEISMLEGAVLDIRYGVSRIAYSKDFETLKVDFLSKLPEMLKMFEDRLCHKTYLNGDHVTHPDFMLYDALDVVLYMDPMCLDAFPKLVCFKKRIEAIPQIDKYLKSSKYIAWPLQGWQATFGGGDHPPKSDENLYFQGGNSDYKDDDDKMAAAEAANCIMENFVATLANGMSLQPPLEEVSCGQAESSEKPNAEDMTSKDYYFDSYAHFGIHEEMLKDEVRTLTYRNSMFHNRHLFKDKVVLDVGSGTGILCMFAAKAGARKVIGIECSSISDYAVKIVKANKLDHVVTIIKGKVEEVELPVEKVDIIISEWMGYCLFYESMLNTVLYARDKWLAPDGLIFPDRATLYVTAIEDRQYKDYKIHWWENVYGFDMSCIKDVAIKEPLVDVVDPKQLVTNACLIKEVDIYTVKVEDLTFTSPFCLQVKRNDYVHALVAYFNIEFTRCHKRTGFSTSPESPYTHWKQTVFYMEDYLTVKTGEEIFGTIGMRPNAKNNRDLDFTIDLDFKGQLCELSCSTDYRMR

`CNCCN(C)Cc1cn(C2CC2)nc1-c1ccc(F)cc1` [Compound 13]: the values for the half-maximal inhibitory concentration (IC50) (in assay [1]; against Full-length human PRMT8) were 1010 to 3000 nM and more than 10000 nM, respectively. In the case of `CNCCN(C)Cc1cnn(C2CC2)c1-c1ccc(F)cc1` [Compound 14], the IC50 in assay [1] was in the range of 101 to 1000 nM; against Full-length human PRMT8, 1010 to 3000 nM. Consider `CNCCN(C)Cc1cn(C(C)C)nc1-c1ccc(F)cc1` [Compound 15], for which the half-inhibitory concentration (IC50) in assay [1] was 3010 to 10000 nM; against Full-length human PRMT8, more than 10000 nM. With `CNCCN(C)Cc1cnn(C(C)C)c1-c1ccc(F)cc1` [Compound 16], the figures for the half-maximal inhibitory concentration (IC50) (in assay [1]; against Full-length human PRMT8) were 1010 to 3000 nM and more than 10000 nM, respectively. The corresponding values for `CNCCN(C)Cc1cn[nH]c1-c1ccc(C#N)cc1` [Compound 17] are less than 100 nM and less than 100 nM. Consider `CNCCN(C)Cc1cn[nH]c1-c1cc(F)cc(F)c1` [Compound 18], for which the IC50 in assay [1] was less than 100 nM; at Full-length human PRMT8 it was 101 to 1000 nM. As to `CCCc1ccc(-c2n[nH]cc2CN(C)CCNC)cc1` [Compound 20], the concentration for half-maximal inhibition (IC50) (in assay [1]; against Full-length human PRMT8) was less than 100 nM throughout. In the case of `CNCCN(C)Cc1c[nH]nc1-c1cccc([N+](=O)[O-])c1` [Compound 21], the results for the IC50 (in assay [1]; at Full-length human PRMT8) were less than 100 nM and 101 to 1000 nM, respectively. Turning to `CNCCN(C)Cc1c[nH]nc1-c1cccc(C#N)c1` [Compound 22], the half-maximal inhibitory concentration (IC50) was in the range of 101 to 1000 nM in assay [1] and 1010 to 3000 nM against Full-length human PRMT8.

For `CNCCN(C)Cc1c[nH]nc1-c1ccccc1OC` [Compound 23], the IC50 in assay [1] lay within 101 to 1000 nM; against Full-length human PRMT8 it was 3010 to 10000 nM. Turning to `CNCCN(C)Cc1c[nH]nc1-c1cccc(OC)c1` [Compound 24], the IC50 in assay [1] is less than 100 nM; at Full-length human PRMT8 it was 101 to 1000 nM. As for `CNCCN(C)Cc1c[nH]nc1-c1ccc(OC)cc1` [Compound 25], the figures for the IC50 (in assay [1]; at Full-length human PRMT8) were less than 100 nM and 101 to 1000 nM, respectively. With `CNCCN(C)Cc1c[nH]nc1-c1cccc(O)c1` [Compound 26], the figures for the half-inhibitory concentration (IC50) (in assay [1]; against Full-length human PRMT8) were 101 to 1000 nM and 1010 to 3000 nM, respectively. The matching figures for `CNCCN(C)Cc1c[nH]nc1-c1ccc(O)cc1` [Compound 27]: less than 100 nM and 101 to 1000 nM. Turning to `CNCCN(C)Cc1c[nH]nc1-c1ccc(CO)cc1` [Compound 28], the IC50 (in assay [1]; at Full-length human PRMT8) was less than 100 nM in each case. As to `CNCCN(C)Cc1c[nH]nc1-c1ccc(C)cc1C` [Compound 29], the IC50 in assay [1] was 101 to 1000 nM; against Full-length human PRMT8, 1010 to 3000 nM. The corresponding values for `CNCCN(C)Cc1cn(CCCC(O)CO)nc1-c1ccc(F)cc1` (centres unmarked) [Compound 30] are 3010 to 10000 nM and more than 10000 nM. `CNCCN(C)Cc1cnn(CCCC(O)CO)c1-c1ccc(F)cc1` (centres unmarked) [Compound 31]: the IC50 in assay [1] is 101 to 1000 nM; on Full-length human PRMT8 it was 3010 to 10000 nM.

For the compound `CNCCN(C)Cc1c[nH]nc1-c1ccc(N)cc1` [Compound 33], the IC50 is 101 to 1000 nM in assay [1] and 1010 to 3000 nM against Full-length human PRMT8.

In the case of `CNCCN(C)Cc1c[nH]nc1-c1ccc(Oc2ccccc2)cc1` [Compound 37], the IC50 (in assay [1]; on Full-length human PRMT8) was less than 100 nM each time. Consider `CNCCN(C)Cc1c[nH]nc1-c1ccccc1C(F)(F)F` [Compound 38], for which the IC50 is 1010 to 3000 nM in assay [1] and 3010 to 10000 nM against Full-length human PRMT8. Turning to `CNCCN(C)Cc1c[nH]nc1-c1ccccc1OC(F)(F)F` [Compound 40], the half-maximal inhibitory concentration (IC50) in assay [1] was 101 to 1000 nM; on Full-length human PRMT8, 3010 to 10000 nM. Consider `CCNC(=O)c1cccc(-c2n[nH]cc2CN(C)CCNC)c1` [Compound 43], for which the concentration for half-maximal inhibition (IC50) is 101 to 1000 nM in assay [1] and 1010 to 3000 nM on Full-length human PRMT8. The matching figures for `CNCCN(C)Cc1c[nH]nc1-c1ccc(C(F)(F)F)cc1` [Compound 174]: less than 100 nM and 101 to 1000 nM. The corresponding values for `CC(C)CC(=O)N1CCN(c2ccc(-c3n[nH]cc3CN(C)CCN)cc2)CC1` [Compound 180] are 101 to 1000 nM and 3010 to 10000 nM. On to `CNCCN(C)Cc1c[nH]nc1-c1ccc(Cl)c(F)c1` [Compound 182], for which the 50% inhibitory concentration (IC50) in assay [1] was less than 100 nM; at Full-length human PRMT8, 101 to 1000 nM. The matching figures for `CN(CCNC1CC1)Cc1c[nH]nc1-c1ccc(C#N)cc1` [Compound 183]: 1010 to 3000 nM and 3010 to 10000 nM.

Turning to `CN(CCN(C)C1CC1)Cc1c[nH]nc1-c1ccc(C#N)cc1` [Compound 184], the IC50 lay within 1010 to 3000 nM in assay [1] and 3010 to 10000 nM at Full-length human PRMT8. For the compound `CN(CCN1CCC1)Cc1c[nH]nc1-c1ccc(C#N)cc1` [Compound 185], the IC50 in assay [1] lay in the range of 1010 to 3000 nM; against Full-length human PRMT8, 3010 to 10000 nM. `CC(C)Oc1cccc(-c2n[nH]cc2CN(C)CCN)c1` [Compound 187]: the IC50 in assay [1] was in the range of 101 to 1000 nM; against Full-length human PRMT8 it was 1010 to 3000 nM. As for `CC(C)Oc1cc(-c2n[nH]cc2CN(C)CCN)ccc1F` [Compound 188], the IC50 was in the range of 101 to 1000 nM in assay [1] and 1010 to 3000 nM against Full-length human PRMT8. In assay [1], `CCn1cc(CN(C)CCNC)c(-c2ccc(OC(C)C)cc2)n1` [Compound 213] returned a half-inhibitory concentration (IC50) of less than 100 nM.

`CNCCN(C)Cc1cn(C2CCCC2)nc1-c1ccc(OC(C)C)cc1` [Compound 214] displayed an IC50 in assay [1] of less than 100 nM. Compound `CNCCN(C)Cc1cn(C2CCOC2)nc1-c1ccc(OC(C)C)cc1` (centres unmarked) [Compound 215] had an IC50 in assay [1] of less than 100 nM. Turning to `CNCCN(C)Cc1cnn(C2CCOC2)c1-c1ccc(OC(C)C)cc1` (centres unmarked) [Compound 216], the half-inhibitory concentration (IC50) in assay [1] is less than 100 nM.

`CNCCN(C)Cc1cn(Cc2ccccc2)nc1-c1ccc(OC(C)C)cc1` [Compound 217] came in with a 50% inhibitory concentration (IC50) in assay [1] of less than 100 nM. The same measure, in the same setting: for `C=CCn1cc(CN(C)CCNC)c(-c2ccc(OC(C)C)cc2)n1` [Compound 218] the value was less than 100 nM. Still for that read-out and setting: the value for `C=CCn1ncc(CN(C)CCNC)c1-c1ccc(OC(C)C)cc1` [Compound 219] was less than 100 nM; that for `CNCCN(C)Cc1cn(C)nc1-c1ccc(OC(C)C)cc1` [Compound 243, N1-((3-(4-isopropoxyphenyl)-1-methyl-1H-pyrazol-4-yl)methyl)-N1,N2-dimethylethane-1,2-diamine] was less than 100 nM; that for `CNCCN(C)Cc1cn(Cc2cccnc2)nc1-c1ccc(OC(C)C)cc1` [Compound 246] was less than 100 nM. On to `CNCCN(C)Cc1cn(Cc2ccccn2)nc1-c1ccc(OC(C)C)cc1` [Compound 247], for which the 50% inhibitory concentration (IC50) in assay [1] lay in the range of 101 to 1000 nM.

`CNCCN(C)Cc1cn(CC(=O)OC)nc1-c1ccc(OC(C)C)cc1` [Compound 248] showed an IC50 in assay [1] of 101 to 1000 nM.

The compound `CNCCN(C)Cc1cn(CC(N)=O)nc1-c1ccc(OC(C)C)cc1` [Compound 251] gave an IC50 in assay [1] of 101 to 1000 nM. Same read-out and setting: the value for `CCn1ncc(CN(C)CCNC)c1-c1ccc(OC(C)C)cc1` [Compound 252] was less than 100 nM; that for `CNCCN(C)Cc1cn(CCOC)nc1-c1ccc(OC(C)C)cc1` [Compound 253, N1-((3-(4-isopropoxyphenyl)-1-(2-methoxyethyl)-1H-pyrazol-4-yl)methyl)-N1,N2-dimethylethane-1,2-diamine hydrochloride] was 101 to 1000 nM; that for `CNCCN(C)Cc1cn(C2CCC2)nc1-c1ccc(OC(C)C)cc1` [Compound 254, N1-((1-cyclobutyl-3-(4-isopropoxyphenyl)-1H-pyrazol-4-yl)methyl)-N1,N2-dimethylethane-1,2-diamine hydrochloride] was less than 100 nM.

Take `CNCCN(C)Cc1cnn(C2CCCC2)c1-c1ccc(OC(C)C)cc1` [Compound 255]: in assay [1], the half-inhibitory concentration (IC50) is less than 100 nM.

As to `C=C(C)C(=O)Nc1cccc(-c2[nH]ncc2CN(C)CCNC)c1` [Compound 257], the IC50 in assay [1] is 101 to 1000 nM.

The compound `C=CC(=O)Nc1cccc(-c2[nH]ncc2CN(C)CCNC)c1` [Compound 258] yielded an IC50 in assay [1] of less than 100 nM.
